Measurements from ChEMBL document CHEMBL1133286, “5-HETE congeners as modulators of cell proliferation” (2000).

Key:
[1] = tested on: LNCaP; experiment: Evaluated for its growth enhancement or mitogenic activity using LNCaP prostate cultures; assay type: functional, Homo sapiens, Prostate gland
[2] = tested on: LNCaP; experiment: Evaluated for its growth enhancement or mitogenic activity using LNCaP prostate cultures.; assay type: functional, cell-based; settings: Homo sapiens, Prostate gland

CCCCC/C=C\C/C=C\C/C=C\C=C\C(O)CCCC(=O)NC (stereo not given)
Control [1]: 108%

CCCCC/C=C\C/C=C\C/C=C\C=C\C(O)CCCC(=O)N1CCCCC1 (stereo not given)
Control [1]: 123%

CCCCC/C=C\C/C=C\C/C=C\C=C\C(O)CCCC(=O)NOC (stereo not given)
Control [1]: 133%

CCCCC/C=C\C/C=C\C/C=C\C=C\C(O)CCCC(=O)c1cnccn1 (stereo not given)
Control [1]: 113%

CCCCC/C=C\C/C=C\C/C=C\C=C\C(N)CCCC(=O)O (stereo not given)
Control [1]: 116%

CCCCC/C=C\C/C=C\C/C=C\C=C\C(O)CCCC(=O)NO (stereo not given)
Control [1]: 3%

CCCCC/C=C\C/C=C\C/C=C\C=C\C(O)CCCC(=O)O (stereo not given)
Control [1]: 116%

CCCCC/C=C\C/C=C\C/C=C\C=C\C(O)CCCC(=O)N(C)OC (stereo not given)
Control [1]: 115%

CCCCC/C=C\C/C=C\C/C=C\C=C\C1CCCC(=O)N1C (stereo not given)
Control [1]: 131%

CCCCC/C=C\C/C=C\C/C=C\C=C\C(O)CCCC(=O)N1CCOCC1 (stereo not given)
Control [1]: 106%

CCCCC/C=C\C/C=C\C/C=C\C=C\C(O)CCCC(=O)NCCCN (stereo not given)
Control [1]: 116%

CCCCC/C=C\C/C=C\C/C=C\C=C\C(O)CCCC(N)=O (stereo not given)
Control [1]: 108%

CCCCC/C=C\C/C=C\C/C=C\C=C\C(O)CCCC(=O)OC (stereo not given)
Control [1]: 111%

CCCCC/C=C\C/C=C\C/C=C\C=C\C(O)CCCC(=O)NCCO (stereo not given)
Control [1]: 125%

CCCCC/C=C\C/C=C\C/C=C\C=C\C(O)CCCC(=O)NN (stereo not given)
Control [1]: 60%

CCCCC/C=C\C/C=C\C/C=C\C=C\C(O)CCCC(=O)N(C)C (stereo not given)
Control [1]: 138%

CCCCC/C=C\C/C=C\C/C=C\C=C\C1CCCC(=O)N1 (stereo not given)
Control [1]: 121%

CCCCC/C=C\C/C=C\C/C=C\C/C=C\CCCC(=O)NCCO [ANANDAMIDE]
Control [1]: 112%

CCCCCCCC/C=C\CCCCCCCC(=O)NCCO
Control [2]: No effect

CCCCC/C=C\C/C=C\C/C=C\C=C\C(CCCC(=O)O)NC (stereo not given)
Control [1]: 125%
